The text below walks through data of patent US20240207308A1, “METHOD FOR CULTURING DENDRITIC CELLS” (NANOFAENTECH CO., LTD., priority 2021, published 2024).

What all share (type): cell-based, mouse
The subject of assay [1] is bone marrow-derived dendritic cells. Put plainly: ELISA of TNF-α and IL-12p40 from LPS-stimulated bone marrow-derived dendritic cells. The following applies: BMDC, 24 hours, LPS 1 μg/mL. The protocol:
Mouse bone marrow-derived dendritic cells were obtained by differentiation from mouse bone marrow precursor cells. The femur and tibia of female C57BL/6 mouse were removed, and bone marrow was isolated using 10 mL of EDTA:BSS (Balanced Salt Solution) buffer containing 2% FBS. Red blood cells were removed with erythrocyte lysis buffer (Sigma-Aldrich), washed with EDTA:BSS buffer, followed by filtering cells using a 70 μm cell strainer (Falcon). Cells at 3×10^6/mL were dispensed in a 6-well plate, and interleukin-4 (20 ng/ml) (JW Creagene, Korea) and GM-CSF (20 ng/ml) (JW Creagene) were added and cultured for 7 days to induce differentiation. Differentiated dendritic cells were reacted with microbeads bound with CD11c antibody (eBioscience), was separated using CD11c Microbeads Ultrapure (MACS, Milteni Biotec), and then cultured.
In FIG. 19, when fibronectin was administered by concentration while culturing bone marrow-derived dendritic cells for 24 hours, it could be seen that the secretion of TNF-α and IL-12p40 by LPS (1 μg/mL) was inhibited from a concentration of 100 μg/mL. * indicates statistical significance as P<0.05 or less compared to 0 μg/mL concentration.

For assay [2], the system named is spleen dendritic cells. In words: Flow cytometry of CD86, MHC-II, CD80, CD40 on cultured spleen dendritic cells (self-activation). As for the experimental part:
Mouse spleen dendritic cells were obtained by adding EDTA-BSS (Balanced Salt Solution) buffer and collagenase solution (DMEM containing 100 units of collagenase type IV, medium containing low glucose) to spleens of female C57BL/6 mice and cutting it with surgical scissors, mixing the same with 6 mL of collagenase treatment solution, and incubating the mixture for 30 minutes. The separated whole spleen tissue was filtered using a 70 μm cell strainer (Falcon), followed by centrifugation at 1800 rpm for 5 minutes thus to separate the cells. Red blood cells were removed by adding red blood cell lysis buffer (Sigma-Aldrich) to the cells and washed twice with RPMI-1640 medium containing 10% fetal bovine serum (FBS). Dendritic cells were reacted with CD11c^+ antibody-bound microbeads and isolated using CD11c Microbeads Ultrapure (MACS, Milteni Biotec, USA).
In FIG. 2, in order to determine whether self-activation occurs when primary dendritic cells isolated from the spleen are cultured, dendritic cells were dispensed in a 24-well plate at 2×10^5/mL, and after culturing for 6 hours in RPMI-1640 medium at 37° C. under 5% CO2 condition, the expression levels of MHC-II, CD86, CD80 and CD40 were analyzed on the surface of dendritic cells using a flow cytometer (MACSQuant VYB flow cytometer, Miltenyi Biotec). Results measured using a flow cytometer were analyzed using FlowJo v10 (Tree Star, Ashland). The expression levels of CD86, CD80 and CD40 were shown as the percentage of cells stained with CD11c, and the expression level of MHC-II was shown as mean fluorescence intensity (MFI), which is the mean fluorescence intensity of fluorescence.
In FIG. 7, when culturing spleen dendritic cells, each of the prepared peptides was added at a concentration of 200 μg/mL and the expression level of CD86 was measured 6 hours after culture. When each peptide was used alone for treatment, the expression of CD86 was not inhibited in spleen dendritic cells. […] Compared to when the cells were treated with these three kinds of peptides, the expression was not inhibited even when the two kinds of peptides were used together for treatment. * indicates statistical significance as P<0.05 or less compared to the P1, P1-2, and P2-1 conditions.
In FIG. 9, peptides containing P1 and P2 and amino acids of these peptides as well as P3 peptide in a combination of three types were added to the spleen dendritic cell culture medium, and after culturing for 6 hours, the expression level of CD86 was measured by flow cytometry.
In FIG. 24, different concentrations of LP1, LP2 and LP3 were added to reach a concentration of 800 μg/mL, and spleen dendritic cells (2×10^5/mL) were cultured for 6 hours or 24 hours, and the CD86 expression level was measured by flow cytometry (MACSQuant VYB flow cytometer, Miltenyi Biotec). The measured results were analyzed using FlowJo v10 (Tree Star, Ashland).
In FIG. 25, when spleen primary dendritic cells were dispensed at 2×10^5/mL and cultured for 24 hours while scrambled peptides of S-LP1, S-LP2 and S-LP3 were each added at a concentration of 800 μg/mL, the increase in the expression of CD86 was not inhibited. Further, the expression of CD86 was not reduced even when the scrambled peptides S-P1, S-P2 and S-P3 were simultaneously treated at a concentration of 600 μg/mL, respectively.

Assay [3] has as its system spleen dendritic cells. Put plainly: CD86 expression of spleen dendritic cells after immunostimulant (LPS or poly (I:C)), flow cytometry. The protocol: In FIG. 14, the expression level of CD86 in spleen primary dendritic cells cultured for 24 hours was measured similarly to the expression level of CD86 increased when E. coli LPS as an activation-inducing agent was used for treatment at a concentration of 1 μg/mL. […] CD86 expression of spleen dendritic cells cultured with addition of fibronectin was not increased even when 1 μg/mL LPS was treated.
In FIG. 20, compared to LPS binding to Toll-like receptor-4 of immune cells and inflammatory cells including dendritic cells, when poly (I:C) (polyinosinic:polycytidylic acid), which is similar to double-stranded RNA in terms of structure and is known as an immunostimulant that binds to Toll-like receptor-3, was administered at a concentration of 50 μg/mL, the increase in the expression of CD86 in spleen dendritic cells was inhibited when cultured with addition of fibronectin.
(Flow cytometry measures light scatter and fluorescence of single cells or particles in a stream.)

Some results are limits rather than exact numbers.

Turning to fibronectin, in assay [1], the “concentration from which the secretion of TNF-α and IL-12p40 by LPS was inhibited” value is not below 100 µg/mL. In assay [2] (200 μg/mL (laminin 200 μg/mL or higher), cultured 6 hours), the “expression level of CD86 or MHC-II (self-activation)” value is “self-activation did not occur”. Besides, in assay [2] (200 μg/mL, cultured 6 hours), the “expression of CD86 and MHC-II as well as CD80 and CD40” value is “not increased”. The “concentration most effective for self-activation of spleen dendritic cells” value in assay [2] (cultured 6 hours) was determined as 200 µg/mL. The “expression of MHC-II, CD80 and CD40 in addition to CD86” value in assay [2] (cultured 6 hours or 24 hours, peptides 200 μg/mL each) is listed as “significantly inhibited”. The “expression of CD86 by LPS stimulation” value in assay [3] (cultured 24 hours with the substance, 1 μg/mL LPS) is “not increased”. In addition, the “increase in the expression of CD86 by poly (I:C)” value in assay [3] (poly (I:C) 50 μg/mL, 24 hours, peptides 200 μg/mL each) was “inhibited”.
